Measurements as given in publication PMC8781238 (European journal of medicinal chemistry, 2020).
“Also recorded” adds a separate entry of the source.

Tests used:
[1] = biological target: T1, recombinant human SphK2 (Homo sapiens, UniProt Q9NRA0); experiment: ADP-Glo kinase assay, SphK2; conditions: comparison of SphK1 and SphK2 activity at 125 µM compound (Fig. 5)
T1 sequence (Q9NRA0 1-654): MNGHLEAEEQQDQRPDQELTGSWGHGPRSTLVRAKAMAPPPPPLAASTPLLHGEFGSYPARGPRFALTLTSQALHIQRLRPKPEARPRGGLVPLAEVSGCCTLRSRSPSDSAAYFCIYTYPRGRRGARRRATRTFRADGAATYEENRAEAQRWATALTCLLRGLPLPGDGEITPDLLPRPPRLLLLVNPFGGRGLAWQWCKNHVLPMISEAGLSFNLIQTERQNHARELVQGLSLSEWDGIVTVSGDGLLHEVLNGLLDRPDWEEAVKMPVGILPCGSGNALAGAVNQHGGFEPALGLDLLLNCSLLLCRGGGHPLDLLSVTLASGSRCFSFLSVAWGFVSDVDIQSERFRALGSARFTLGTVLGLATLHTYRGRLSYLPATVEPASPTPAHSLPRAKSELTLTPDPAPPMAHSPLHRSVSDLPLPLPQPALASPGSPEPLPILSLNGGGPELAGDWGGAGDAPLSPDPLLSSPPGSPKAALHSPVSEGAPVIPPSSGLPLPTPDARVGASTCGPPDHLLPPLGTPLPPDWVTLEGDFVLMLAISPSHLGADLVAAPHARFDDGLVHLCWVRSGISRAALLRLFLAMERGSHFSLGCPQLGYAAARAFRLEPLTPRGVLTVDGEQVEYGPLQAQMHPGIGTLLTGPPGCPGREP

[2] = tested on: U-251 MG human glioblastoma cells; experiment: In vitro cell viability assay; assay type: cell-based; conditions: 125 µM, 24 hours incubation; for Antitumor activity on U-251 MG cell viability (in words): compared with compound 7 (ABC294640)
[3] = tested on: SphK1; conditions: read-out: SphK1 IC50; cited from earlier work
[4] = tested on: SphK2; conditions: cited from earlier work

Row | SMILES | Selectivity/specificity for SphK2 over SphK1 (in words) [1] | Antitumor activity on U-251 MG cell viability (in words) [2] | other results
1 | CCCCc1cn(Cc2ccc(-c3noc(C[C@@H]4CCCN4C(=N)N)n3)cc2)nn1.Cl [Compound 21d, (S)-2-((3-(4-((4-Butyl-1H-1,2,3-triazol-1-yl)methyl)phenyl)-1,2,4-oxadiazol-5-yl)methyl)pyrrolidine-1-carboximidamide hydrochloride] | lowest specificity; also recorded: no selective |  | 
2 | Cl.N=C(N)N1CCC[C@H]1Cc1nc(-c2ccc(Cn3cc(-c4ccc(C(F)(F)F)cc4)nn3)cc2)no1 [Compound 21b, (S)-2-((3-(4-((4-(4-(Trifluoromethyl)phenyl)-1H-1,2,3-triazol-1-yl)methyl)phenyl)-1,2,4-oxadiazol-5-yl)methyl)-pyrrolidine-1-carboximidamide hydrochloride] | lowest specificity; also recorded: no selective | highest anti-tumor activity; also recorded: strongest antitumor activity | 
3 | Cl.N=C(N)N1CCC[C@H]1Cc1nc(-c2ccc(Cn3cc(-c4ccccc4)nn3)cc2)no1 [Compound 21a, (S)-2-((3-(4-((4-Phenyl-1H-1,2,3-triazol-1-yl)methyl)phenyl)-1,2,4-oxadiazol-5yl)methyl)pyrrolidine-1-carboximidamide hydrochloride] |  | highest anti-tumor activity; also recorded: strongest antitumor activity | 
4 | Cl.N=C(N)N1CCC[C@H]1Cc1nc(-c2ccc(Cn3cc(C4CC4)nn3)cc2)no1 [Compound 21f, (S)-2-((3-(4-((4-Cyclopropyl-1H-1,2,3-triazol-1-yl)methyl)phenyl)-1,2,4-oxadiazol-5-yl)methyl)pyrrolidine-1-carboximidamide hydrochloride] | lowest specificity; also recorded: no selective |  | 
5 | COc1ccc(-c2cn(Cc3ccc(-c4noc(C[C@@H]5CCCN5C(=N)N)n4)cc3)nn2)cc1.Cl [Compound 21e, (S)-2-((3-(4-((4-(4-Methoxyphenyl)-1H-1,2,3-triazol-1-yl)methyl)phenyl)-1,2,4-oxadiazol-5-yl)methyl)pyrrolidine-1-carboximidamide hydrochloride] | high selectivity; also recorded: highest specificity | comparable reduction of viability | 
6 | Cl.Cn1cc(-c2cn(Cc3ccc(-c4noc(C[C@@H]5CCCN5C(=N)N)n4)cc3)nn2)cn1 [Compound 21g, (S)-2-((3-(4-((4-(1-Methyl-1H-pyrazol-4-yl)-1H-1,2,3-triazol-1-yl)methyl)phenyl)-1,2,4-oxadiazol-5-yl)methyl)pyrrolidine-1-carboximidamide hydrochloride] | high selectivity; also recorded: highest specificity |  | 
7 | Cl.Cn1cc(-c2cn(Cc3ccc(-c4noc(C5(C(=N)N)CC5)n4)cc3)nn2)cn1 [Compound 29b] | highly selective |  | 
8 | Cl.N=C(N)N1CCC[C@H]1Cc1nc(-c2ccc(Cn3cc(-c4ccccn4)nn3)cc2)no1 [Compound 21c, (S)-2-((3-(4-((4-(Pyridin-2-yl)-1H-1,2,3-triazol-1-yl)methyl)phenyl)-1,2,4-oxadiazol-5-yl)methyl)pyrrolidine-1-carboximidamide hydrochloride] | high selectivity; also recorded: highest specificity |  | 
9 | O=C(NCc1ccncc1)C12CC3CC(C1)CC(c1ccc(Cl)cc1)(C3)C2 [Compound 7] |  |  | IC50 [3]: ≥ 100 µM; Reduction of cell viability of U-251 MG cells [2]: approximately 50%; IC50 ([4]; read-out: SphK2 IC50): ~60 µM
10 | COc1ccc(-c2cn(Cc3ccc(-c4noc([C@@H]5CCCN5C(=N)N)n4)cc3)nn2)cc1.Cl [Compound 25d] |  | comparable reduction of viability | 
11 | N=C(N)N1CCC[C@H]1Cc1nc(-c2ccc(Nc3nc(-c4cccc(C(F)(F)F)c4)cs3)cc2)no1 [Compound 13] |  |  | Ki ([4]; read-out: SphK2 Ki): 0.09 µM
12 | Cl.N=C(N)C1(c2nc(-c3ccc(Cn4cc(-c5ccccc5)nn4)cc3)no2)CC1 [Compound 29a, 1-(3-(4-((4-Phenyl-1H-1,2,3-triazol-1-yl)methyl)phenyl)-1,2,4-oxadiazol-5-yl)cyclopropanecarboximidamide hydrochloride] | highly selective |  | 
13 | Cl.N=C(N)N1CCC[C@H]1c1nc(-c2ccc(Cn3cc(-c4ccccn4)nn3)cc2)no1 [Compound 25c, (S)-2-(3-(4-((4-(Pyridin-2-yl)-1H-1,2,3-triazol-1-yl)methyl)phenyl)-1,2,4-oxadiazol-5-yl)pyrrolidine-1-carboximidamide hydrochloride] | lowest specificity |  | 
14 | Cl.N=C(N)N1CCC[C@H]1c1nc(-c2ccc(Cn3cc(-c4ccc(C(F)(F)F)cc4)nn3)cc2)no1 [Compound 25b] |  | highest anti-tumor activity; also recorded: tremendously decrease the viability; also recorded: strongest antitumor activity; also recorded: higher antitumor activity | 
15 | CCCCc1cn(Cc2ccc(-c3noc([C@@H]4CCCN4C(=N)N)n3)cc2)nn1.Cl [Compound 25f] | high selective |  | 
16 | Cl.N=C(N)N1CCC[C@H]1c1nc(-c2ccc(Cn3cc(C4CC4)nn3)cc2)no1 [Compound 25h] | high selective |  | 
